Results: patent USRE38520E1, “Erythromycin derivatives, method for preparing same, and use thereof as drugs” (Aventis Pharma S.A., priority 1996, dated 2004)

Tests used:
Test in all cases: Method of dilutions in liquid medium (M.I.C.)
Assay type in all cases: cell-based
Settings in all cases: incubation twenty-four hours at 37° C.
[1] = test system: Staphylococtus aureus 011UC4
Method: (§1) Method of Dilutions in Liquid Medium A series of tubes were prepared into which the same quantity of sterile nutritive medium is distributed. Increasing quantities of the product to be studied are distributed into each tube, then each tube is seeded with a bacterial strain. After incubation for twenty-four hours in a heating chamber at 37° C., the growth inhibition is evaluated by transillumination, which permits the minimal inhibitory concentrations (M.I.C.) to be determined, expressed in micrograms/cm^3.

[2] = test system: Streptoccocus agalactae group B 02B1811
Method: as §1

[3] = test system: Streptoccocus agalactae group B 02B1UTI
Method: as §1

[4] = test system: Streptoccocus aritis 02mmCH1
Method: as §1

[5] = test system: Streptoccocus aritis 02mmGR01
Method: as §1

[6] = test system: Streptoccocus faecalis group C 02D2UCI
Method: as §1

[7] = test system: Streptoccocus faecium group D 02D2UCI
Method: as §1

[8] = test system: Streptoccocus pneumoniae 031515
Method: as §1

[9] = test system: Streptoccocus pyogenes group A 02A1UCI
Method: as §1

[10] = test system: Streptoccocus sp. group G 02GRGR5
Method: as §1

Molecule | minimal inhibitory concentrations (M.I.C.) [1] | minimal inhibitory concentrations (M.I.C.) [2] | minimal inhibitory concentrations (M.I.C.) [3] | minimal inhibitory concentrations (M.I.C.) [4] | minimal inhibitory concentrations (M.I.C.) [5] | minimal inhibitory concentrations (M.I.C.) [6] | minimal inhibitory concentrations (M.I.C.) [7] | minimal inhibitory concentrations (M.I.C.) [8] | minimal inhibitory concentrations (M.I.C.) [9] | minimal inhibitory concentrations (M.I.C.) [10]
11,12-dideoxy-3-de((2,6-dideoxy-3-C-methyl-3-O-methyl-alpha-L-ribohexopyranosyl)oxy)-3-hydroxy-6-O-methyl-12,11-(oxycarbonyl(2-(3-(4-quinolinyl)propyl)hydrazono)) erythromycin [Ex. 1] | 0.3 micrograms/cm^3 | 0.6 micrograms/cm^3 | ≦0.02 micrograms/cm^3 | 0.3 micrograms/cm^3 | 0.15 micrograms/cm^3 | 0.04 micrograms/cm^3 | 0.04 micrograms/cm^3 | 0.6 micrograms/cm^3 | 0.04 micrograms/cm^3 | 0.04 micrograms/cm^3
CC[C@H]1OC(=O)[C@H](C)[C@@H](O)[C@H](C)[C@@H](O[C@@H]2O[C@H](C)C[C@H](N(C)C)[C@H]2O)[C@](C)(OC)C[C@@H](C)C(=O)[C@H](C)[C@H]2N(CCCCn3cnc(-c4cccnc4)c3)C(=O)O[C@]12C [Ex. 2, 11,12-dideoxy-3-d((2,6-dideoxy-3-C-methyl-3-O-methyl-alpha-L-ribohexopyranosyl)oxy)-3-hydroxy-6-O-methyl-12,11-(oxycarbonyl((4-(4-(3-pyridinyl)-1H-imidazol-1-yl)-butyl)imino))-erythromycin] |  | 1.2 micrograms/cm^3 | 0.04 micrograms/cm^3 | 0.34 micrograms/cm^3 | 0.6 micrograms/cm^3 | 0.3 micrograms/cm^3 | 0.3 micrograms/cm^3 | 1 micrograms/cm^3 | 0.15 micrograms/cm^3 | 0.15 micrograms/cm^3
